We go through one compound from ChEMBL document CHEMBL6096702, “Discovery of a Novel p38α-MK2 Complex Inhibitor as a Potential Choice for Autoimmune Diseases” (J Med Chem, 2025).

The nature of data set [1]: Inhibition of N-terminal GST-tagged wildtype human P38alpha (4 to 152 residues) extracted from Escherichia coli/GST-tagged PRAK (unknown origin) assessed as reduction in HSP27 phosphorylation incubated for 2 hrs in presence of ATP and HSP27-FITC peptide by fluorescence polarization based IMAP assay. (In fluorescence polarisation assays a small probe gives low polarisation when free and higher when bound to something large.)

Data set [2] can be described thus: AUClast in male Sprague-Dawley rat at 1 mg/kg, iv measured after 24 hrs by LC-MS/MS analysis. The format is ADME, organism-based. The following applies: in vivo.
The nature of data set [3]: AUClast in male Beagle dog at 1 mg/kg, iv measured after 24 hrs by LC-MS/MS analysis. The following applies: in vivo. The format is ADME, organism-based, Canis lupus familiaris.
A further data set concerns PBMC. Kind of data set: Inhibition of LPS-induced TNF-alpha production in human PBMC cells at 0.01 to 10000 nM preincubated with compound for 1 hrs followed by LPS addition and measured after 4 hrs. The format is functional, cell-based. As to conditions: dose 0.01-10000 nM, time 5.0 hrs.
Data set [4] can be described thus: Inhibition of HSP27 phosphorylation in human THP-1 cells at 0.1 to 1000 nM preincubated with compounds followed by LPS addition for 30 mins. The format is cell-based.
Data set [5] has as its target T1, Cytochrome P450 3A4 (Homo sapiens, UniProt P08684). Kind of data set: Inhibition of CYP3A4 in human liver microsomes using midazolam as substrate in presence of NADP by LC-MS/MS analysis. The data set is classed as ADME, Microsome. (In general: Liver microsomes are vesicles of endoplasmic reticulum, rich in cytochrome P450 enzymes.)
Data set [6] addresses T1, Cytochrome P450 3A4. As to the kind of experiment: Inhibition of CYP3A4 in human liver microsomes using testosterone as substrate in presence of NADP by LC-MS/MS analysis. The format is ADME, Microsome.
Another data set deals with Cytochrome P450 2C9 (Homo sapiens, UniProt P11712). As to the kind of experiment: Inhibition of CYP2C9 in human liver microsomes using tolbutamide as substrate in presence of NADP by LC-MS/MS analysis. The data set is classed as ADME, Microsome.
Sequence of Cytochrome P450 2C9 (P11712 whole entry): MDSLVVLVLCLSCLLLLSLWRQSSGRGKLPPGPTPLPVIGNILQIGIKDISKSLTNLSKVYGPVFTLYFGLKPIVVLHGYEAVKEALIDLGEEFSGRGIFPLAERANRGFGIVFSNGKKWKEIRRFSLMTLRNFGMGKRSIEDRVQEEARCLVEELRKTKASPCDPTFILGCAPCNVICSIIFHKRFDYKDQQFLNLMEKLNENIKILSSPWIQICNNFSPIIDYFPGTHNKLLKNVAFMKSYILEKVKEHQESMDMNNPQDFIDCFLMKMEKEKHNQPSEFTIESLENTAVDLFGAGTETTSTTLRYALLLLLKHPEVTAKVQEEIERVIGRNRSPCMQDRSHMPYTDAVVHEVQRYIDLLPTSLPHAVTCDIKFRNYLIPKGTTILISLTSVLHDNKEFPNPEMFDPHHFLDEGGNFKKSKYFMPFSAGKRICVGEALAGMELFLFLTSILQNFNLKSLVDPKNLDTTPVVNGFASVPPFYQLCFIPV
The target of another data set is T2, Cytochrome P450 1A2 (Homo sapiens, UniProt P05177).
T2 sequence (P05177 whole entry): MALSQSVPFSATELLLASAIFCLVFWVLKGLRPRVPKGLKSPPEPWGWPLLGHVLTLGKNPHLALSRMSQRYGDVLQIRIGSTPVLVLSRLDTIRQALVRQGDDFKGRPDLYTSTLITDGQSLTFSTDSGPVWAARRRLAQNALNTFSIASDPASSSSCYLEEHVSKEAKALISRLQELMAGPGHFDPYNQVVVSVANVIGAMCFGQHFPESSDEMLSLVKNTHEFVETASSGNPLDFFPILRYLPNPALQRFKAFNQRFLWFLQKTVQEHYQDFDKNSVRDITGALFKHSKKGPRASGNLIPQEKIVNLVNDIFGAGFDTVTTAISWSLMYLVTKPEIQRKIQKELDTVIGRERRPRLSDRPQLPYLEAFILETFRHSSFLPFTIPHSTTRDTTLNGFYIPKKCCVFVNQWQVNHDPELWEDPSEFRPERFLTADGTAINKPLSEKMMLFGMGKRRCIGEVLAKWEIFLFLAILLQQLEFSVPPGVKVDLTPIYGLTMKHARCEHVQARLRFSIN
Kind of data set: Inhibition of CYP1A2 in human liver microsomes using phenacetin as substrate in presence of NADP by LC-MS/MS analysis. The format is ADME, Microsome.

Data set [7] has as its target Voltage-gated inwardly rectifying potassium channel KCNH2 (Homo sapiens, UniProt Q12809). Kind of data set: Inhibition of human ERG in HEK293 cells. The data set is classed as toxicity, cell-based.
A short description of data set [8]: Cmax in female Lewis rat at 1 mg/kg, po measured after 24 hrs by LC-MS/MS analysis. The following applies: in vivo. The data set is classed as ADME, organism-based.
Data set [9] in a line: AUC (0 to 24 hrs) in female Lewis rat at 3 mg/kg, po measured after 24 hrs by LC-MS/MS analysis. The format is ADME, organism-based. As to conditions: in vivo.
The subject of data set [10] is Rattus norvegicus. As to the kind of experiment: Antiarthritic activity in Mycobacterium tuberculosis H37R-induced female Lewis rat model of arthritis assessed as reduction in joint swelling by measuring paw volume score at 1 mg/kg, po administered twice daily for 15 days starting from day 13 after adjuvant administration by water displacement method. As to conditions: time 15.0 day. The data set is classed as functional, organism-based.

For data set [11], the system named is Rattus norvegicus. Kind of data set: Antiarthritic activity in Mycobacterium tuberculosis H37R-induced female Lewis rat model of arthritis assessed as reduction in paw inflammation at 0.3 to 1 mg/kg, po administered twice daily for 15 days starting from day 13 after adjuvant administration by micro-CT analysis. The format is functional, organism-based. As to conditions: dose 0.3-1 mg/kg, time 15.0 day.

For data set [12], the system named is Rattus norvegicus. Kind of data set: Antiarthritic activity in Mycobacterium tuberculosis H37R-induced female Lewis rat model of arthritis assessed as inhibition of IL-6 production at 0.3 to 1 mg/kg, po administered twice daily for 15 days starting from day 13 after adjuvant administration. The format is functional, organism-based. The following applies: dose 0.3-1 mg/kg, time 15.0 day.

Activity calls are given as the source filed them. The rule behind the calls is not given here.

One may read the IC50 as the concentration needed to halve the response being measured. By AUC(0-t) is commonly meant exposure summed from dosing to a finite time, without extrapolation to infinity. Higher therefore signals more exposure. By Cmax is commonly meant the maximum level reached in the sampled fluid or tissue.

T1 sequence (P08684 whole entry): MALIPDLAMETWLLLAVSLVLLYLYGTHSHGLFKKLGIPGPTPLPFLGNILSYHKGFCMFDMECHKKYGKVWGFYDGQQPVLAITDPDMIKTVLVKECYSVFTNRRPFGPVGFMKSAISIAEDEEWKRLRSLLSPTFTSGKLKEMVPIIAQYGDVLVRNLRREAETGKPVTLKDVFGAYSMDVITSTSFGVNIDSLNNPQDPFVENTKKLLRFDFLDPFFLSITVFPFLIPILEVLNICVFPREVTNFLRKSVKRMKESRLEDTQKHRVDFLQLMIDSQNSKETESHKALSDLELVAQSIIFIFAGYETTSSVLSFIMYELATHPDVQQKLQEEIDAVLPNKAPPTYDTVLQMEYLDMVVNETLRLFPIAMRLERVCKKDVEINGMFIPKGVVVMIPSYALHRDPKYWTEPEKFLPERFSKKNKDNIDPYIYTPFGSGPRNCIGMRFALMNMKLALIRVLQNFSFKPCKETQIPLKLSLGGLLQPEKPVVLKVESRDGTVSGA
Sequence of Voltage-gated inwardly rectifying potassium channel KCNH2 (Q12809 whole entry): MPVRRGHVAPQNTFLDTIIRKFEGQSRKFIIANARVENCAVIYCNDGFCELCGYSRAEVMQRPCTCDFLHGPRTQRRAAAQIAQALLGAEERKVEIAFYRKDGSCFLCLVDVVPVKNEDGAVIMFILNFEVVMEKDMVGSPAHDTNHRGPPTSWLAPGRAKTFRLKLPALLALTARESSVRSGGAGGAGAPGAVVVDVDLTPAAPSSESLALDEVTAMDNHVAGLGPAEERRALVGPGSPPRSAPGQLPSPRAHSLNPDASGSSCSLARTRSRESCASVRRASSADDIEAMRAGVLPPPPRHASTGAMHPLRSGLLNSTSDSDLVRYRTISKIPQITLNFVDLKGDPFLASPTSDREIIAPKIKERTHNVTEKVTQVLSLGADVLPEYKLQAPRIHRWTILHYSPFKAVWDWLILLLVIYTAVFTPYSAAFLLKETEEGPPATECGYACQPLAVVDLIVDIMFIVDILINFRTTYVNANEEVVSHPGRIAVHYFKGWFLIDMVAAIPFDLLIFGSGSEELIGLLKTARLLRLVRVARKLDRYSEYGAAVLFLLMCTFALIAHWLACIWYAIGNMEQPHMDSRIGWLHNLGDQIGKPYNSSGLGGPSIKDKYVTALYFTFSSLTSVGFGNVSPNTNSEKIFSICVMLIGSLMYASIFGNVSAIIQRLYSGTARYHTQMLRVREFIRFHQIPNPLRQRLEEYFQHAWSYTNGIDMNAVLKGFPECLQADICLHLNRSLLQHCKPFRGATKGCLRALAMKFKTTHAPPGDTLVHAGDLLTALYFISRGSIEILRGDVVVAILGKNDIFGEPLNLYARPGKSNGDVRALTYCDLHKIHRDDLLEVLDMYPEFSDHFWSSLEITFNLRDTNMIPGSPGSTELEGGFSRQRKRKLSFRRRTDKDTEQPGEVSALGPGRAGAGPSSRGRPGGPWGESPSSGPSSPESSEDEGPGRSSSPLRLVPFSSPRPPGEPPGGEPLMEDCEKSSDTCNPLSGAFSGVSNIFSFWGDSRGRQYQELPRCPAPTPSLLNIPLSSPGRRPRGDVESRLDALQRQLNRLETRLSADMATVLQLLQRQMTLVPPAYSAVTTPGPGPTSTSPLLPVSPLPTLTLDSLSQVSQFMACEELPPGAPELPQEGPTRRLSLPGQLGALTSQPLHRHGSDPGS

Take `Cc1cnc(-c2ccnc(C(C)(C)O)n2)c(F)c1-n1c(C)cc(O[C@@H](C)c2ncc(F)cc2F)c(C)c1=O`: the IC50 in [1] is 5.85 µM; in data set [4], 0.001 µM; at Cytochrome P450 3A4 [5] it was over 40 µM; on Cytochrome P450 3A4 [6], over 40 µM; at Cytochrome P450 2C9, over 40 µM; at Cytochrome P450 1A2 it was over 40 µM. In [7], this compound returned an IC50 of over 30 µM. Moreover, the AUC(0-t) at 24 h in [2] stood at 1800 ng·h/mL; in data set [3], 3750 ng·h/mL; in data set [9] it was 6480 ng·h/mL. Besides, in the data set with PBMC, the inhibition result is “Active”. Further, the Cmax in data set [8] was 299 ng/mL. Also, the Activity result in the data set on Rattus norvegicus [10] is listed as “Active; Significantly Superior Activity Observed Compared To 3 Mg/Kg Of Compound 1”. Further, the result with Rattus norvegicus [11] and in the data set with Rattus norvegicus [12] was Active.
